Test results: US12692264B2, “Pyrimidine or pyridine derivative, preparation method therefor, and application thereof in pharmacy” (ABBISKO THERAPEUTICS CO., LTD., priority 2021, dated 2026)

The molecules below were run against Ba/F3 EGFR-D770-N771ins_SVD (Homo sapiens, UniProt P00533, DUP768-770, cells depend on it) (assay: Cell proliferation study (CellTiter-Glo, 72 hrs), Ba/F3 EGFR-D770-N771ins_SVD). Conditions: CTG, * = average of multiple measurements, read-out: Ba/F3 EGFR-D770-N771ins_SVD IC50.
Ba/F3 EGFR-D770-N771ins_SVD, sequence (P00533 with tags, fused parts or gaps DUP768-770): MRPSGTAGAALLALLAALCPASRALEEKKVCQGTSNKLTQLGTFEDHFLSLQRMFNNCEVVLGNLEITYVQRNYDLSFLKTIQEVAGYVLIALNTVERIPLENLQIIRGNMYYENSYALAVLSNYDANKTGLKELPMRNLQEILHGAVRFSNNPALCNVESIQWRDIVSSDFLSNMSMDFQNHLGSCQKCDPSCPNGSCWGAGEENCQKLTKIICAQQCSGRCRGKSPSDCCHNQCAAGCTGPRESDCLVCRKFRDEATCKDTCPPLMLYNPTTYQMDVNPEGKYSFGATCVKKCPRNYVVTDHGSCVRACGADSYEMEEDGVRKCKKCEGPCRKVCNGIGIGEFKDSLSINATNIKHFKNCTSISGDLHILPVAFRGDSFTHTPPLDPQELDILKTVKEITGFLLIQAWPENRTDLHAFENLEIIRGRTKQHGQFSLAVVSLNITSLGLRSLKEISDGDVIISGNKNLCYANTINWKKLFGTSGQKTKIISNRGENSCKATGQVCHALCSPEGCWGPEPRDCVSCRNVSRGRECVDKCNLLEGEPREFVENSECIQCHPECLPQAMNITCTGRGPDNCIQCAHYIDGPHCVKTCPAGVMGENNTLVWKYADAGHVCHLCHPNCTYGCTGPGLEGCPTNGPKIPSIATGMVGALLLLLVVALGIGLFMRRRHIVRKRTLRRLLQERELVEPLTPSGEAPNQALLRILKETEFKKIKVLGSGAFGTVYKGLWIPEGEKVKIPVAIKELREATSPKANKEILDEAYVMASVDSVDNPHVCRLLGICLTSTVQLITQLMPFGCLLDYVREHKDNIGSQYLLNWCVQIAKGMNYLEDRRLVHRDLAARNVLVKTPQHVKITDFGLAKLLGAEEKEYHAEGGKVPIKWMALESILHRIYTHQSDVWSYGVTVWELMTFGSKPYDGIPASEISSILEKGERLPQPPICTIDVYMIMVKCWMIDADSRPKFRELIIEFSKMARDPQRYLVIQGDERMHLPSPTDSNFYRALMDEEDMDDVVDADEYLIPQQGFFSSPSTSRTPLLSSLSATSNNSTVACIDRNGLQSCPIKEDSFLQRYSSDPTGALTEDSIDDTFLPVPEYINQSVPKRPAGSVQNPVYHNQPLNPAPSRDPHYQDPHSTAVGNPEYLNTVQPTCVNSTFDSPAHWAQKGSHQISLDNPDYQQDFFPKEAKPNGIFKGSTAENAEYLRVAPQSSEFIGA
Format: cell-based
Method: (I) Reagents and Materials
• Fetal bovine serum FBS (GBICO, Cat #10099-141); • CellTiter-Glo® luminescent cell viability assay kit (Promega, Cat #G7572); • Black transparent flat-bottom 96-well plate (Corning®, Cat #3603). (II) Instruments • SpectraMax multi-label microplate reader MD, 2104-0010A; • Carbon dioxide incubator, Thermo Scientific 3100 series; • Biological safety cabinet, Thermo Scientific, 1300 series model A2; • Inverted microscope, Olympus, CKX41SF; • Siemens refrigerator KK25E76T1. (III) Cell Lines and Culture Conditions
(IV) Experimental Procedures 1. Cell Culture and Inoculation: • (1) Cells in the logarithmic growth phase were harvested and counted using a […]. The cell viability was determined by the trypan blue dye exclusion method to ensure cell viability above 90%. • (2) The cell concentration was adjusted to reach a desired final density; 90 μL of cell suspension was added to a 96-well plate. • (3) The cells were incubated overnight in the 96-well plate at 37° C., 5% CO2 and with 95% humidity. 2. T0 Benchmark Data: • (1) 10 μL of PBS was added to each well of the TO plate containing the cells. • (2) The CTG reagent was thawed and the cell plate was equilibrated to room temperature for 30 min. • (3) An equal volume of CTG solution was added to each well. • (4) The cells were lysed by shaking on an orbital shaker for 5 min. • (5) The cell plate was left to stand at room temperature for 20 min to stabilize the fluorescence signal. • (6) The fluorescence signal values of TO were read. 3. Dilution and Addition of Compounds • (1) According to the compound information table, a corresponding volume of DMSO was added to the corresponding compound powder to prepare a 10 mM stock solution. • (2) A 1000-fold, 3.16-fold-diluted compound solution was prepared. • (3) The 1000× diluted compound solution was diluted 100-fold with PBS to prepare a 10-fold compound solution with a maximum concentration of 10 μM, including 9 concentrations, with 3.16-fold dilution, and 10 μL of the medicament solution was added to each well of the 96-well plate to seed the cells. Triplicate wells were set for each compound concentration, with a final concentration of DMSO being 0.1%. • (4) The cells were placed in the 96-well plate containing the medicament at 37° C., 5% CO2 and with 95% humidity, and cultured for 72 hrs before CTG analysis. 4. Fluorescence Signal Reading • (1) The CTG reagent was thawed and the cell plate was equilibrated to room temperature for 30 min. • (2) An equal volume of CTG solution was added to each well. • (3) The cells were lysed by shaking on an orbital shaker for 5 min. • (4) The cell plate was left to stand at room temperature for 20 min to stabilize the fluorescence signal. • (5) The fluorescence values were read. 5. Data Processing
Data were analyzed using GraphPad Prism 7.0 software and fitted data were regressed using non-linear S-curves to obtain dose-response curves from which IC50 values (in nM) were calculated.
`C=CC(=O)Nc1cc(Nc2ncc(C(=O)OC(C)C)c(N3CC(C)(C)c4cc(F)c(F)cc43)n2)c(OC)cc1N1CC[C@@H](N(C)C)C1` [Example 94, isopropyl (R)-2-((5-acrylamido-4-(3-(dimethyl-amino)pyrrolidin-1-yl)-2-methoxy-phenyl)amino)-4-(5,6-difluoro-3,3-dimethylindolin-1-yl)pyrimidine-5-carboxylate] showed a GI50 of 0.06 µM. In the case of `C=CC(=O)Nc1cc(Nc2ncc(C(=O)OC(C)C)c(N3CC(C)(C)c4nc(C#CC)ccc43)n2)c(OC)cc1N1CCN(C)CC1` [Example 70, isopropyl 2-((5-acrylamido-2-methoxy-4-(4-methylpiperazin-1-yl)phenyl)amino)-4-(3,3-dimethyl-5-(prop-1-yn-1-yl)-2,3-dihydro-1H-pyrrolo[3,2-b]pyridin-1-yl)pyrimidine-5-carboxylate], the GI50 is reported as 0.501 µM. `C=CC(=O)Nc1cc(Nc2ncc(C(=O)OC(C)C)c(N3CC(C)(C)c4nc(C)ccc43)n2)c(OC)cc1N1CC[C@H](N(C)C)C1` [Example 13, isopropyl (S)-2-((5-acrylamido-4-(3-(dimethyl-amino)pyrrolidin-1-yl)-2-methoxy-phenyl)amino)-4-(3,3,5-trimethyl-2,3-dihydro-1H-pyrrolo[3,2-b]pyridin-1-yl)pyrimidine-5-carboxylate] showed a GI50 of 0.0783 µM. `[2H]C1([2H])N(c2nc(Nc3cc(NC(=O)C=C)c(N4CCN(C5CC5)CC4)cc3OC)ncc2C(=O)OC(C)C)c2ccc(C)nc2C1(C)C` [Example 53, isopropyl 2-((5-acrylamido-4-(4-cyclopropyl-piperazin-1-yl)-2-methoxy-phenyl)amino)-4-(3,3,5-trimethyl-2,3-dihydro-1H-pyrrolo[3,2-b]pyridin-1-yl-2,2-d2)pyrimidine-5-carboxylate] was tested, and the GI50 was 0.552 µM. Work on `C=CC(=O)Nc1cc(Nc2ncc(C(=O)OC(C)C)c(N3CC(C)(C)c4nc(C#N)ccc43)n2)c(OC)cc1N(C)CCN(C)C` [Example 23, isopropyl 2-((5-acrylamido-4-((2-(dimethylami-no)ethyl)(methyl)amino)-2-methoxy-phenyl)amino)-4-(5-cyano-3,3-dimethyl-2,3-dihydro-1H-pyrrolo[3,2-b]pyridin-1-yl)pyrimidine-5-carboxylate] yielded a GI50 of 0.0922 µM. Work on `C=CC(=O)Nc1cc(Nc2ncc(C(=O)OC(C)C)c(N3CC(C)(C)c4nc(C)ccc43)n2)c(OC(C)C)cc1N(C)CCN(C)C` [Example 28, isopropyl 2-((5-acrylamido-4-((2-(dimethylami-no)ethyl)(methyl)amino)-2-isopropoxy-phenyl)amino)-4-(3,3,5-trimethyl-2,3-dihydro-1H-pyrrolo[3,2-b]pyridin-1-yl)pyrimidine-5-carboxylate] yielded a GI50 of 0.204 µM. With `C=CC(=O)Nc1cc(Nc2ncc(C(=O)OC(C)C)c(N3CC(C)(C)c4nc(C(=C)C)ccc43)n2)c(OC)cc1N(C)CCN(C)C` [Example 14, isopropyl 2-((5-acrylamido-4-((2-(dimethylami-no)ethyl)(methyl)amino)-2-methoxy-phenyl)amino)-4-(3,3-dimethyl-5-(prop-1-en-2-yl)-2,3-dihydro-1H-pyrrolo[3,2-b]pyridin-1-yl)pyrimidine-5-carboxylate] the GI50 was 0.039 µM. For `C=CC(=O)Nc1cc(Nc2ncc(C(=O)OC(C)C)c(N3CC(C)(C)c4nc(C)ccc43)n2)c(OC)cc1N1CCC[C@@H](N(C)C)C1` [Example 61, isopropyl (R)-2-((5-acrylamido-4-(3-(dimethyl-amino)piperidin-1-yl)-2-methoxy-phenyl)amino)-4-(3,3,5-trimethyl-2,3-dihydro-1H-pyrrolo[3,2-b]pyridin-1-yl)pyrimidine-5-carboxylate], the GI50 was 0.255 µM. With `C=CC(=O)Nc1cc(Nc2ncc(C(=O)OC(C)C)c(N3CC4(CC(F)(F)C4)c4nc(C)ccc43)n2)c(OC)cc1N(C)CCN(C)C` [Example 24, isopropyl 2-((5-acrylamido-4-((2-(dimethylami-no)ethyl)(methyl)amino)-2-methoxy-phenyl)amino)-4-(3,3-difluoro-5′-methylspiro(cyclobutane-1,3′-pyrrolo[3,2-b]pyridin)-1′(2′H)-yl)pyrimidine-5-carboxylate] the GI50 was 0.111 µM. `C=CC(=O)Nc1cc(Nc2ncc(C(=O)OC(C)C)c(N3CC(C)(C)c4nc(C#CC)ccc43)n2)c(OC)cc1N1CCN(C)C(C)C1` (stereo not drawn) [Example 95, isopropyl 2-((5-acrylamido-4-(3,4-dimethyl-piperazin-1-yl)-2-methoxy-phenyl)amino)-4-(3,3-dimethyl-5-(prop-1-yn-1-yl)-2,3-dihydro-1H-pyrrolo[3,2-b]pyridin-1-yl)pyrimidine-5-carboxylate] showed a GI50 of 0.254 µM. Molecule `C=CC(=O)Nc1cc(Nc2ncc(C(=O)OC(C)C)c(N3CC4(CC4)c4nc(C)ccc43)n2)c(OC)cc1N1CCC[C@H]1CN(C)C` [Example 51, isopropyl (S)-2-((5-acrylamido-4-(2-((dimethyl-amino)methyl)pyrrolidin-1-yl)-2-meth-oxyphenyl)amino)-4-(5′-methyl-spiro(cyclopropane-1,3′-pyrrolo[3,2-b]pyridin)-1′(2′H)-yl)pyrimidine-5-carboxylate] has a GI50 of 0.199 µM. In the case of `C=CC(=O)Nc1cc(Nc2ncc(C(=O)OC(C)C)c(N3CC(C)(C)c4nc(C(C)C)ccc43)n2)c(OC)cc1N(C)CCN(C)C` [Example 16, isopropyl 2-((5-acrylamido-4-((2-(dimethylami-no)ethyl)(methyl)amino)-2-methoxy-phenyl)amino)-4-(5-isopropyl-3,3-dimethyl-2,3-dihydro-1H-pyrrolo[3,2-b]pyridin-1-yl)pyrimidine-5-carboxylate], the GI50 is reported as 0.309 µM. `C=CC(=O)Nc1cc(Nc2ncc(C(=O)OC(C)C)c(N3CC(C)(C)c4nc(C)ccc43)n2)c(OC)cc1N(CC)CCN(C)C` [Example 45, isopropyl 2-((5-acrylamido-4-((2-(dimethylami-no)ethyl)(ethyl)amino)-2-methoxy-phenyl)amino)-4-(3,3,5-trimethyl-2,3-dihydro-1H-pyrrolo[3,2-b]pyridin-1-yl)pyrimidine-5-carboxylate] was tested, and the GI50 was 0.0762 µM. `C=CC(=O)Nc1cc(Nc2ncc(C(=O)OC(C)C)c(N3CC(C)(C)c4nc(C)ccc43)n2)c(OC)nc1N1CCC[C@H]1CN(C)C` [Example 43, isopropyl (S)-2-((5-acrylamido-6-(2-((dimethyl-amino)methyl)pyrrolidin-1-yl)-2-meth-oxypyridin-3-yl)amino)-4-(3,3,5-tri-methyl-2,3-dihydro-1H-pyrrolo[3,2-b]pyridin-1-yl)pyrimidine-5-carboxylate] was tested, and the GI50 was 0.453 µM. In the case of `C=CC(=O)Nc1cc(Nc2ncc(C(=O)OC(C)C)c(N3CC(C)(C)c4nc(C#CC(C)C)ccc43)n2)c(OC)cc1N(C)CCN(C)C` [Example 19, isopropyl 2-((5-acrylamido-4-((2-(dimethylami-no)ethyl)(methyl)amino)-2-methoxy-phenyl)amino)-4-(3,3-dimethyl-5-(3-methylbut-1-yn-1-yl)-2,3-dihydro-1H-pyrrolo[3,2-b]pyridin-1-yl)pyrimidine-5-carboxylate], the GI50 is reported as 0.119 µM. `C=CC(=O)Nc1cc(Nc2ncc(C(=O)OC(C)C)c(N3CC(C)(C)c4nc(C)ccc43)n2)c(OC)cc1N1CCN(C)CC1` [Example 33, isopropyl 2-((5-acrylamido-2-methoxy-4-(4-methylpiperazin-1-yl)phenyl)amino)-4-(3,3,5-trimethyl-2,3-dihydro-1H-pyrrolo[3,2-b]pyridin-1-yl)pyrimidine-5-carboxylate] gave a GI50 of 0.503 µM. Work on `C=CC(=O)Nc1cc(Nc2ncc(C(=O)OC(C)C)c(N3CC(C)(C)c4nc(Br)ccc43)n2)c(OC)cc1N(C)CCN(CC)CC` [Example 90, isopropyl 2-((5-acrylamido-4-((2-(diethyl-amino)ethyl)(methyl)amino)-2-methoxyphenyl)amino)-4-(5-bromo-3,3-dimethyl-2,3-dihydro-1H-pyrrolo[3,2-b]pyridin-1-yl)pyrimidine-5-carboxylate] yielded a GI50 of 0.116 µM. In the case of `C=CC(=O)Nc1cc(Nc2ncc(C(=O)OC(C)C)c(N3CC(C)(C)c4nc(C#CC)ccc43)n2)c(OC)cc1N1CCN(C2CC2)CC1` [Example 75, isopropyl 2-((5-acrylamido-4-(4-cyclopropyl-piperazin-1-yl)-2-methoxyphenyl)ami-no)-4-(3,3-dimethyl-5-(prop-1-yn-1-yl)-2,3-dihydro-1H-pyrrolo[3,2-b]pyridin-1-yl)pyrimidine-5-carboxylate], the GI50 is reported as 2.85 µM.
